Assay results: US20140303090A1, “Smac Mimetic Therapy” (TETRALOGIC PHARMACEUTICALS CORPORATION, priority 2013, published 2014)
Where two headings read alike, the source gives them in different places.

Key:
[1] = tested on: DAP-mediated NF-κB-luc (NOD1); experiment: DAP-stimulated NF-kB luciferase reporter gene assay (NOD1 signaling) in HCT116 cells; assay type: cell-based, human; details: for Inhibition of DAP-mediated NF-κB-luc, % Inhibition: 10 μM Smac mimetic, HCT116 cells
Description: (§1) To assay effects on XIAP E3 ubiquitin ligase activity manifested as NF-kB activation, we established both DAP- and MDP-stimulated luciferase reporter gene assays in which Smac mimetics are evaluated in cells at a single 10 μM drug concentration. Specifically, we developed stable cell lines with HCT116 cells (human colon cancer) that carry the NF-kB-luciferase reporter gene under the regulation of NF-kB promoter activation elements. The assay was carried out as follows: • 1. HCT116 (3-3) cells were cultured in white wall 96-wells plate (50,000 cells/50 μL/well) for overnight at 37° C. • 2. […] The luciferase activity in each well was measured by using Steady-Glo® Luciferase Assay System (Promega Corp.). 48 μL of luminescence detection reagent was added in each well, followed by brief agitation. The plate was left in dark for 15 minutes and then the luminescence activity was measured by using microplate reader Victor2 (PerkinElmer Life and Analytical Science, Shelton, Conn.). • 4. Calculation:
(§2) Luciferase activity in no ligand (i.e., […]) treatment wells=background (BG)
(§3) Luciferase activity in ligand only treatment wells=positive control (PC)
(§4) Luciferase activity in Smac mimetic (SM)+ligand treatment wells=Test • i) Test<PC
(§5) Inhibitory activity by SM(%)=100×[(PC−Test)/(PC−BG)] • ii) Test>PC
(§6) Activation by SM(%)=100×[(Test−BG)/(PC−BG)]

[2] = tested on: MDP-mediated NF-κB-luc (NOD2); experiment: MDP-stimulated NF-kB luciferase reporter gene assay (NOD2 signaling) in HCT116 cells; assay type: cell-based, human; details: for Inhibition of MDP-mediated NF-κB-luc, % Inhibition: 10 μM Smac mimetic, HCT116 cells
Description: as §1, §2, §3, §4, §5, §6

XIAP BIR3 = XIAP BIR3 (Homo sapiens, UniProt P98170); experiment: Fluorescence polarization displacement assay, XIAP BIR3
From the text: (§7) To establish protein-ligand binding affinity, we employed a fluorescence polarization assay. This assay monitored the displacement of an IAP binding motif (IBM)-containing peptide, Abu-RPFK(5-carboxyfluorescein)-NH2, from the Type III BIR domains of cIAP1, cIAP2, XIAP, and ML-IAP.

GFP-cIAP2 [3] = target: T1, GFP-cIAP2 (Homo sapiens, UniProt Q13489); experiment: GFP-cIAP2 degradation assay (loss of GFP signal, flow cytometry); assay type: cell-based
T1 construct: expressed in transfected cells
From the text: In this assay, treatment of GFP-cIAP-expressing melanoma cell line A375 with Smac mimetic, Compound 15, for two hours, results in degradation of cIAP-1 and cIAP-2 with concomitant loss of GFP-signal.

GFP-cIAP2 [4] = target: T1, GFP-cIAP2; experiment: GFP-cIAP2 degradation assay (loss of GFP signal, flow cytometry); assay type: cell-based; details: read-out: ΔGFP-cIAP2 EC50, 24 h
WT murine BMDMs = experiment: IL-1β secretion from LPS-primed WT bone marrow-derived macrophages; assay type: cell-based; details: 24 h
From the text: Given the heightened activity of 2 versus 1 on cIAP2, we speculated that the improved tolerability of 1 might also be associated with reduced antagonism of XIAP functional activity in this system. We thus evaluated a selection of Smac-mimetics in both LPS-primed wild-type (WT) and XIAP knockout (Xiap^−/−) murine BMDMs to assess their capacity to induce the secretion of IL-1β following treatment with Smac-mimetic (FIG. 4).
WT and Xiap^−/− BMDMs were primed with LPS±the indicated concentration of Smac-mimetics for 24 h. WT BMDM results are presented as the mean±SEM (n=3 biological independent repeats). […] Total levels of IL-1β induced by Smac-mimetics in these assays varied but the trend was identical.

Xiap−/− murine BMDMs = experiment: IL-1β secretion from LPS-primed XIAP knockout bone marrow-derived macrophages; assay type: cell-based; details: 24 h
Description: We thus evaluated a selection of Smac-mimetics in both LPS-primed wild-type (WT) and XIAP knockout (Xiap^−/−) murine BMDMs to assess their capacity to induce the secretion of IL-1β following treatment with Smac-mimetic (FIG. 4).
WT and Xiap^−/− BMDMs were primed with LPS±the indicated concentration of Smac-mimetics for 24 h. WT BMDM results are presented as the mean±SEM (n=3 biological independent repeats).

Tolerability = details: in vivo
From the text: . Binding of IAP antagonists to cIAP1 proteins induces a conformational rearrangement that exposes the RING domain. Once exposed, the RING domain dimerizes and E3 ubiquitin ligase activity is activated. Using a range of assays that evaluated cIAP1 stability; NF-κB activation; cIAP1 oligomeric state; […]. Birinapant-induced loss of cIAPs correlated with inhibition of TNF-mediated NF-κB activation, caspase activation, tumor cell killing, and tumor regression. Birinapant was well-tolerated. […]. […]; (ii.) decreased affinity for XIAP BIR3; (iii.) decreased ability to inhibit XIAP-dependent NOD signaling, despite its activity in an XIAP-dependent caspase-3 activation assay; and, (iv.) decreased pro-inflammatory IL-1β secretion. […]

cIAP2 BIR3 = cIAP2 BIR3 (Homo sapiens, UniProt Q13489); experiment: Fluorescence polarization displacement assay, cIAP2 BIR3; details: for Ki: read-out: cIAP2 BIR3, Ki
From the text: as §7

cytoplasmic cIAP-2 = cytoplasmic cIAP-2 (Homo sapiens, UniProt Q13489); experiment: Western blot of cytoplasmic cIAP-2 in GFP-cIAP-2 A375 cells; details: 100 nM, 0 to 240 minutes
Description: (§8) The stable cell lines expressing GFP-cIAP-1 or GFP-cIAP-2 were cultured in 10 cm dishes in sub-confluence overnight. […] The lysate was cleared by centrifugation (14000 rpm) at 4° C. for 10 minutes and the supernatant was subjected to the co-immunoprecipitation experiment. The protein concentration of the supernatant was measured by using Bradford reagent (Sigma). Co-immunoprecipitation was carried out with 600 μg of the total protein and 1 μg of anti-TRAF 2 antibody (Cell Signaling). After the incubation at 4° C. for overnight, 25 μL protein A/G beads (Invitrogen) was added to precipitate the immunocomplex. The beads were washed with the lysis buffer three times, followed by dissolving with 25 μL SDS-Loading buffer (Invitrogen).
(§9) The membrane was soaked with the blocking buffer (LICOR) for 30 minutes, followed by incubation with the primary antibodies, cIAP-1 and cIAP-2 (R&D Systems), at 4° C. for overnight. After the incubation, the membrane was washed three times with TBS-T buffer (Invitrogen) and incubated with IRDye anti-goat antibody (LICOR) at 37° C. for 45 minutes. Following 5 times washings, the membrane was scanned by The Odyssey Infrared Imaging System (LICOR).

TRAF2-bound cIAP-2 = TRAF2-bound cIAP-2 (Homo sapiens, UniProt Q13489); experiment: Anti-TRAF2 co-immunoprecipitation and western blot of TRAF2-bound cIAP-2 in GFP-cIAP-2 A375 cells; details: 100 nM, 0 to 240 minutes
Description: as §8, §9

[5] = cited from earlier work
xenograft = details: cited from earlier work
[6] = target: cIAP-1 (cytoplasmic and TRAF2-bound) (Homo sapiens, UniProt Q13490); experiment: Co-immunoprecipitation and western blot, cytoplasmic versus TRAF2-bound cIAP-1 in GFP-cIAP-1 A375 cells; details: 100 nM, 0 to 240 minutes, visual
Description: as §8, §9

[7] = read-out: ΔGFP-cIAP2 EC50, 2 h, 2 h, A375 cells

T1 sequence (Q13489 whole entry): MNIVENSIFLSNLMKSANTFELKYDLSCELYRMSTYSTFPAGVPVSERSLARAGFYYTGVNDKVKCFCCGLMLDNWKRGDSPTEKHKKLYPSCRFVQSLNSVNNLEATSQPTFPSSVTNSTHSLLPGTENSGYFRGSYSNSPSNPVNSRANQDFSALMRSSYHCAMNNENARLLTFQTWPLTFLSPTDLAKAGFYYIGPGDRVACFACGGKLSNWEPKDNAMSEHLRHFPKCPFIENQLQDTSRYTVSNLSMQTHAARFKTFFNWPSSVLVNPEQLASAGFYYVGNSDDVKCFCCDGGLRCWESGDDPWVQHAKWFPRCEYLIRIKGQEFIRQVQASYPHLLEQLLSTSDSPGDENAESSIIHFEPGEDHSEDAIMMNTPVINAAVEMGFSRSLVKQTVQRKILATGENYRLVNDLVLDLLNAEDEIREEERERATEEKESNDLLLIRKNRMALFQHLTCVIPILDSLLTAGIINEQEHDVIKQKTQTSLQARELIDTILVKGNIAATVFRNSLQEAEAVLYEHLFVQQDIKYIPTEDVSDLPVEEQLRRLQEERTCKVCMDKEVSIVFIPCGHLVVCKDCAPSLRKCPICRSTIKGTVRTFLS
Chain of cIAP2 BIR3 (Q13489 238-349 limits assumed): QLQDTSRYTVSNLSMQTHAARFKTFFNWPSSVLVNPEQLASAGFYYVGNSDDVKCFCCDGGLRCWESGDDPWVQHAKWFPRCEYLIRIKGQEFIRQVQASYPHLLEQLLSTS
Chain of cytoplasmic cIAP-2 (Q13489 whole entry): as the sequence (Q13489 whole entry) above
Chain of TRAF2-bound cIAP-2 (Q13489 whole entry): as above
Chain of TRAF2-bound cIAP-2 (Q12933 whole entry partner): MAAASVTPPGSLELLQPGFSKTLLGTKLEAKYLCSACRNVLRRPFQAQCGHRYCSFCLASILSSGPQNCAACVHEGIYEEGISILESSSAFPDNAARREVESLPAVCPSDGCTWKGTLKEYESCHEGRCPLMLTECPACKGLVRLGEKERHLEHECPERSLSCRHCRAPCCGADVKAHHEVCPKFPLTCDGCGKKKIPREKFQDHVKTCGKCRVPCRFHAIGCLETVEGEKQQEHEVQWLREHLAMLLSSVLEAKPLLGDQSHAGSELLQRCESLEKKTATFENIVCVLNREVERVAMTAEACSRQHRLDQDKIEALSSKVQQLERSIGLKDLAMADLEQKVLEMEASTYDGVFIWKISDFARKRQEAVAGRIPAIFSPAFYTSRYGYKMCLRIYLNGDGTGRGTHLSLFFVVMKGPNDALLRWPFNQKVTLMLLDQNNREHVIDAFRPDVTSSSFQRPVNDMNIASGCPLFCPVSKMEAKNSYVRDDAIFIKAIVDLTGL
Chain of XIAP BIR3 (P98170 241-356 limits assumed): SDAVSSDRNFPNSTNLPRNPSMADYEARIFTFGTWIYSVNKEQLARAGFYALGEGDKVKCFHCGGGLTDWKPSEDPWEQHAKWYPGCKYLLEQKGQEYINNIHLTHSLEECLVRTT
Chain of cIAP-1 (cytoplasmic and TRAF2-bound) (Q13490 whole entry): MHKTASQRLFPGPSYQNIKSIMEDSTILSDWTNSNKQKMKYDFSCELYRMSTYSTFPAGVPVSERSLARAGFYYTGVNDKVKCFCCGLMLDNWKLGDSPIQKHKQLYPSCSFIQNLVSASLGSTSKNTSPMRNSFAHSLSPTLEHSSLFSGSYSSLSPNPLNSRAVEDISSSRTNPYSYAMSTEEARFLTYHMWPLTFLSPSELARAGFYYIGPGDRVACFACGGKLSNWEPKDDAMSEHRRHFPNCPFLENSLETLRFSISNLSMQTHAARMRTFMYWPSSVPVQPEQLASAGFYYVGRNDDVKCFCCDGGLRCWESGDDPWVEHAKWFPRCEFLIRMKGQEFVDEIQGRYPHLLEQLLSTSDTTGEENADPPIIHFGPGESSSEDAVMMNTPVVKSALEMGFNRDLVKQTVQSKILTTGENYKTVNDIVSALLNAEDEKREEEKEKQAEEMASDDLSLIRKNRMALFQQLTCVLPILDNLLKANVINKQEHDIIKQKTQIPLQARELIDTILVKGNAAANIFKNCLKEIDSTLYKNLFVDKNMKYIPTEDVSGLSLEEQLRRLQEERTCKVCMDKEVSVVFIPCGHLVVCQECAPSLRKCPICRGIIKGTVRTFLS

CN[C@@H](C)C(=O)N[C@H](C(=O)N1C[C@@H](O)C[C@H]1Cc1c(Cc2[nH]c3cc(F)ccc3c2C[C@@H]2C[C@H](O)CN2C(=O)[C@@H](NC(=O)[C@H](C)NC)C(C)(C)C)[nH]c2cc(F)ccc12)C(C)(C)C [(14)]
Inhibition of DAP-mediated NF-κB-luc, % Inhibition [1]: 74 (+/−14) % | Inhibition of MDP-mediated NF-κB-luc, % Inhibition [2]: 86 (+/−9) %

CN[C@@H](C)C(=O)N[C@H](C(=O)N1C[C@@H](O)C[C@H]1Cc1c(Cc2[nH]c3cc(F)ccc3c2C[C@@H]2C[C@H](O)CN2C(=O)[C@@H](NC(=O)[C@H](C)NC)C(C)(C)C)[nH]c2cc(F)ccc12)C(C)(C)C [(12)]
Inhibition of DAP-mediated NF-κB-luc, % Inhibition [1]: 99 (+/−2) % | Inhibition of MDP-mediated NF-κB-luc, % Inhibition [2]: 98 (+/−2) % | Kd (XIAP BIR3; read-out: XIAP BIR3 Kd): < 1 nM

CC[C@@H](NC(=O)[C@H](C)NC)C(=O)N1C[C@@H](O)C[C@H]1Cc1c(-c2[nH]c3cc(F)ccc3c2C[C@@H]2C[C@H](O)CN2C(=O)[C@@H](CC)NC(=O)[C@H](C)NC)[nH]c2cc(F)ccc12 [compound 4]
DC50 (GFP-cIAP2 [3]; [7]): 5720 ± 157 nM | EC50 (TNF-mediated NF-κB-luc): 4980 ± 996 nM | DC50 (GFP-cIAP2 [4]): 5540 ± 115 nM

CC[C@H](NC(=O)[C@H](C)NC)C(=O)N1C[C@@H](O)C[C@H]1Cc1c(-c2[nH]c3cc(F)ccc3c2C[C@@H]2C[C@H](O)CN2C(=O)[C@@H](CC)NC(=O)[C@H](C)NC)[nH]c2cc(F)ccc12 [compound 3]
reduced ability to degrade GFP-cIAP2 relative to 1 (GFP-cIAP2 [3]): 100 fold | DC50 (GFP-cIAP2 [3]; [7]): > 10000 nM | Inhibition of MDP-mediated NF-KB-luc @ 2 h, % Inhibition [2]: No | EC50 (TNF-mediated NF-κB-luc): 1730 ± 985 nM | DC50 (GFP-cIAP2 [4]): 4930 ± 1600 nM

CN[C@@H](C)C(=O)N[C@H](C(=O)N1C[C@@H](O)C[C@H]1Cc1c(Cc2[nH]c3cc(F)ccc3c2C[C@@H]2C[C@H](O)CN2C(=O)[C@@H](NC(=O)[C@H](C)NC)C(C)(C)C)[nH]c2cc(F)ccc12)C(C)(C)C [(11)]
Inhibition of DAP-mediated NF-κB-luc, % Inhibition [1]: 100 (n = 1) % | Inhibition of MDP-mediated NF-κB-luc, % Inhibition [2]: 100 (n = 2) % | Kd (XIAP BIR3): < 1 nM

CC[C@H](NC(=O)[C@H](C)NC)C(=O)N1C[C@@H](O)C[C@H]1Cc1c(-c2[nH]c3cc(F)ccc3c2C[C@@H]2C[C@H](O)CN2C(=O)[C@H](CC)NC(=O)[C@H](C)NC)[nH]c2cc(F)ccc12 [birinapant (1), birinapant]
EC50 (GFP-cIAP2 [3]; [7]): 108 ± 46 nM | Inhibition of DAP-mediated NF-κB-luc, % Inhibition ([1]; listed as 1): ca. 35% | Inhibition of DAP-mediated NF-κB-luc, % Inhibition ([1]; listed as Birinapant (1)): 35 (+/−16) % | Inhibition of DAP-mediated NF-KB-luc @ 2 h, % Inhibition ([1]; @ 2 h): 35 ± 16% | Inhibition of MDP-mediated NF-κB-luc, % Inhibition ([2]; listed as 1): ca. 35% | Inhibition of MDP-mediated NF-κB-luc, % Inhibition ([2]; listed as Birinapant (1)): 35 (+/−14) % | Inhibition of MDP-mediated NF-KB-luc @ 2 h, % Inhibition [2]: 35 ± 14% | IL-1β secretion from LPS-primed WT BMDMs (WT murine BMDMs): no increase in IL-1β secretion | IL-1β secretion in Xiap−/− BMDMs (Xiap−/− murine BMDMs): induced IL-1β secretion | tolerability (Tolerability): well-tolerated | EC50 (TNF-mediated NF-κB-luc): 9 ± 5 nM | EC50 (GFP-cIAP2 [4]): 151 ± 86 nM | reduction of affinity for cIAP2 BIR3 compared with Compound A (cIAP2 BIR3): approximately 40 fold | Ki (cIAP2 BIR3): 36 nM | Ki (cIAP2 BIR3; listed as Birinapant): ~36 nM | degradation of cytoplasmic cIAP-2 (cytoplasmic cIAP-2): substantially non-degraded | degradation of TRAF2-bound cIAP-2 (TRAF2-bound cIAP-2): degraded

CC[C@@H](NC(=O)[C@@H](C)NC)C(=O)N1C[C@H](O)C[C@@H]1Cc1c(-c2[nH]c3cc(F)ccc3c2C[C@H]2C[C@@H](O)CN2C(=O)[C@@H](CC)NC(=O)[C@@H](C)NC)[nH]c2cc(F)ccc12 [compound 5, ent-birinapant]
DC50 (GFP-cIAP2 [3]; [7]): > 10000 nM | EC50 (TNF-mediated NF-κB-luc): > 10000 nM | DC50 (GFP-cIAP2 [4]): > 10000 nM

CN[C@@H](C)C(=O)N[C@H](C(=O)N1C[C@@H](O)C[C@H]1Cc1c(Cc2[nH]c3cc(F)ccc3c2C[C@@H]2C[C@H](O)CN2C(=O)[C@@H](NC(=O)[C@H](C)NC)C(C)(C)C)[nH]c2cc(F)ccc12)C(C)(C)C [(13)]
Inhibition of DAP-mediated NF-κB-luc, % Inhibition [1]: No inhibition | Inhibition of MDP-mediated NF-κB-luc, % Inhibition [2]: No inhibition

CN[C@@H](C)C(=O)N[C@H](C(=O)N1C[C@@H](O)C[C@H]1Cc1c(-c2[nH]c3cc(F)ccc3c2C[C@@H]2C[C@H](O)CN2C(=O)[C@@H](NC(=O)[C@H](C)NC)[C@@H](C)OC)[nH]c2cc(F)ccc12)[C@@H](C)OC [Compound 5]
tolerability in rats compared to Compound 15 [5]: less well-tolerated | antitumor activity compared to Compound 15 (xenograft): comparable antitumor activity | degradation of cytoplasmic cIAP-2 (cytoplasmic cIAP-2): degraded | degradation of TRAF2-bound cIAP-2 (TRAF2-bound cIAP-2): degraded | extent of degradation of cytoplasmic cIAP-1 versus cIAP-1 bound to TRAF2 [6]: approximately the same
